Read-outs that look alike come from different tables or passages of the source. Values belong to the compound of their own block, whether it stands above or below them.
How the values were obtained:
A549 = test: MTT cytotoxicity assay, A549 cells, 48 h; type: cell-based; conditions: Homo sapiens, read-out: Cytotoxicity (IC50, μM) A549
Experimental: (§1) The cytotoxicity of the target compounds was evaluated via MTT assay; A549, HeLa, HepG2, and WI-38 were selected for the experiment; and the selected cell lines were purchased from Lanzhou Weihuan Biotechnology Development Co., Ltd. All cell lines were maintained in RPMI-1640 medium supplemented with 10% fetal calf serum under the environment of 5% CO2 concentration and 37°C. The incubated tumor cells were seeded in the prepared 96-well plates, respectively, to make them attach for 12 h. Afterward, the cells were processed with the synthesized compounds with different concentrations as well as fascaplysin as the reference group for 48 h. After 48 h, 10 μl of MTT solution (5 mg/ml in PBS) was added into each well and incubated for 4 h. Then, the medium was removed and 100 μl DMSO was added to dissolve the blue-colored formazan. The absorbance was detected at 570 nm by microplate reader to calculate the inhibition rate (%) and the IC50 was defined using GraphPad Prism Software (version 5.02) (shown in Table 1).

CDK4/CycD3 = biological target: T1, CDK4/CycD3 (Homo sapiens, UniProt P11802); test: CDK4 kinase inhibition assay (mobility shift assay); type: biochemical; conditions: mean of three independent experiments
T1 construct: purchased Cama
Experimental: In this study, the inhibitory activities of the synthesized compounds against CDK4/CycD3 were also evaluated using mobility shift assay, and fascaplysin was used as the positive control compound. CDK4/CycD3 was from Cama, kinase substrate peptide was from GL, and fascaplysin was from Selleckchem. First, the kinase base buffer should be prepared (50.0 mmol/L HEPES, pH 7.5, 5 mM MgCl2, 1 mmol DTT, 0.0015% Brij-35). Second, 50 μg CDK4 kinase was added to the kinase base buffer to prepare the kinase solution. The kinase base buffer was used to prepare ATP and substrate peptide solutions, and the obtained solutions were mixed. Third, the synthesized compounds as well as the fascaplysin were diluted with DMSO to the desired concentrations. Fourth, the reaction mixture was incubated at 30°C for 40 min, and 25 μl stop buffer was added to stop the reaction. Finally, conversion was read by Caliper, and GraphPad Prism 5.0 was used to calculate the IC50 values of the compounds against enzyme bioactivities (Table 2).

HeLa = test: MTT cytotoxicity assay, HeLa cells, 48 h; type: cell-based; conditions: Homo sapiens, read-out: Cytotoxicity (IC50, μM) HeLa
Experimental: as §1

HepG2 = test: MTT cytotoxicity assay, HepG2 cells, 48 h; type: cell-based; conditions: Homo sapiens, read-out: Cytotoxicity (IC50, μM) HepG2
Experimental: as §1

[1] = MTT cytotoxicity assay, normal cells WI-38, 48 h; type: cell-based; conditions: human
Experimental: as §1

[2] = A549, MTT assay, 48 h, three independent experiments
[3] = MTT assay, three independent experiments
[4] = HepG2, MTT assay, 48 h, three independent experiments
[5] = WI-38 cells (normal cell line), normal cell line, MTT assay, 48 h, three independent experiments, read-out: Cytotoxicity (IC50, μM) WI-38

T1 sequence (P11802 whole entry): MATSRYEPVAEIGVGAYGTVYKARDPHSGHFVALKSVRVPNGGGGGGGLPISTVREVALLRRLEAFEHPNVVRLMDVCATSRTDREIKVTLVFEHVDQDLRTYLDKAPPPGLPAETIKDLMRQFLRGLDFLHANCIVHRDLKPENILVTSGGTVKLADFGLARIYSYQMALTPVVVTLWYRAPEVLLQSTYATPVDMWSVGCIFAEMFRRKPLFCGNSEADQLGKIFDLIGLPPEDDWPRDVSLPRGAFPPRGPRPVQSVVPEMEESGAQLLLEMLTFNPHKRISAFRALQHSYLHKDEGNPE
T1 sequence (P30281 whole entry partner): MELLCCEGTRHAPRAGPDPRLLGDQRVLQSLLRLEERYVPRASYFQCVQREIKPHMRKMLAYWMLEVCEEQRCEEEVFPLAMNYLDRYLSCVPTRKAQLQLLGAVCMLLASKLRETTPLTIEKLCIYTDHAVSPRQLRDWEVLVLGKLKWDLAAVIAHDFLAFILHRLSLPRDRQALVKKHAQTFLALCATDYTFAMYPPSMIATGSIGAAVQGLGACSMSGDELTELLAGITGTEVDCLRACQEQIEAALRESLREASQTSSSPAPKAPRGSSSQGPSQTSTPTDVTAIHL

Compound: COC(=O)C1c2[nH]c3ccccc3c2CCN1C(=O)c1ccc(OC)cc1 (stereo not drawn) [Compound 6b, Methyl-2-(4-methoxybenzoyl)-2,3,4,9-tetrahydro-1H-pyrido [3,4-b] indole-1-carboxylate]
- IC50 (A549; [2]): 13.2 ± 1.21 µM
- IC50 (CDK4/CycD3): 25.7 µM
- IC50 (HeLa; [3]): 14.1 ± 2.69 µM
- melting point: 200.8 to 201.6 °C
- IC50 (HepG2; [4]): 26.3 ± 1.88 µM
- IC50 at 48 h [1, 5]: 267 ± 28.9 µM

Compound: COC(=O)C1c2[nH]c3ccccc3c2CCN1C(=O)c1ccc(Cl)cc1 (stereo not drawn) [Compound 6g, Methyl 2-(4-chlorobenzoyl)-2,3,4,9-tetrahydro-1H-pyrido[3,4-b] indole-1-carboxylate]
- IC50 (A549; [2]): 25.7 ± 8.78 µM
- IC50 (CDK4/CycD3): 27.5 µM
- IC50 (HeLa; [3]): 22.9 ± 2.31 µM
- melting point: 200.3 to 201.5 °C
- IC50 (HepG2; [4]): 13.7 ± 2.13 µM
- IC50 at 48 h [1, 5]: 375 ± 60 µM

Compound: COC(=O)C1c2[nH]c3ccccc3c2CCN1C(=O)c1ccc(I)cc1 (stereo not drawn) [Compound 6d, Methyl-2-(4-iodobenzoyl)-2,3,4,9-tetrahydro-1H-pyrido [3,4-b] indole-1-carboxylate]
- IC50 (A549; [2]): 10.8 ± 1.17 µM
- IC50 (CDK4/CycD3): 30.3 µM
- IC50 (HeLa; [3]): 19.4 ± 2.56 µM
- melting point: 195.6 to 196.5 °C
- IC50 (HepG2; [4]): 33.4 ± 5.18 µM
- IC50 at 48 h [1, 5]: 373 ± 62.8 µM

Compound: COC(=O)C1c2[nH]c3ccccc3c2CCN1C(=O)c1ccc2c(c1)OCO2 (stereo not drawn) [Compound 6i, Methyl-2-(benzo [d] [1,3]dioxole-5-carbonyl)-2,3,4,9-tetrahydro-1H-pyrido [3,4-b] indole-1-carboxylate]
- IC50 (A549; [2]): 9.6 ± 3.22 µM
- IC50 (CDK4/CycD3): 3.38 µM
- IC50 (HeLa; [3]): 3.57 ± 0.93 µM
- melting point: 165.3 to 166.7 °C
- IC50 (HepG2; [4]): 12.2 ± 3.01 µM
- IC50 at 48 h [1, 5]: 247 ± 10.9 µM

Compound: COC(=O)C1c2[nH]c3ccccc3c2CCN1C(=O)c1ccc2ccccc2c1 (stereo not drawn) [Compound 6h, Methyl-2-(2-naphthoyl)-2,3,4,9-tetrahydro-1H-pyrido [3,4-b] indole-1-carboxylate]
- IC50 (A549; [2]): 12.7 ± 1.2 µM
- IC50 (CDK4/CycD3): 12.4 µM
- IC50 (HeLa; [3]): 10.8 ± 2.69 µM
- melting point: 183.6 to 184.5 °C
- IC50 (HepG2; [4]): 19.5 ± 0.43 µM
- IC50 at 48 h [1, 5]: 186 ± 12.4 µM

Compound: COC(=O)C1c2[nH]c3ccccc3c2CCN1C(=O)c1ccc(-c2ccccc2)cc1 (stereo not drawn) [Compound 6c, Methyl-2-([1, 1’-biphenyl]-4-carbonyl)-2,3,4,9-tetrahydro-1H-pyrido [3,4-b] indole-1 carboxylate]
- IC50 (A549; [2]): 6.53 ± 1.65 µM
- IC50 (CDK4/CycD3): 1.89 µM
- IC50 (HeLa; [3]): 1.03 ± 0.19 µM
- melting point: 177.8 to 179.6 °C
- IC50 (HepG2; [4]): 5.21 ± 0.58 µM
- IC50 at 48 h [1, 5]: 312 ± 56.1 µM

Compound: O=C1c2ccccc2-[n+]2ccc3c([nH]c4ccccc43)c21 [Fascaplysin]
- IC50 (A549; A549, 48 h): 1.05 ± 0.08 µM
- IC50 (CDK4/CycD3): 0.79 ± 0.72 µM
- IC50 (HeLa): 0.56 ± 0.05 µM
- IC50 (HepG2; HepG2, 48 h): 0.24 ± 0.04 µM
- IC50 at 48 h [1]: 1.86 ± 0.17 µM

Compound: COC(=O)C1c2[nH]c3ccccc3c2CCN1C(=O)c1ccccc1 (stereo not drawn) [Compound 6e, Methyl-2-benzoyl-2,3,4,9-tetrahydro-1H-pyrido [3,4-b] indole-1-carboxylate]
- IC50 (A549; [2]): 15.5 ± 1.26 µM
- IC50 (CDK4/CycD3): 20.7 µM
- IC50 (HeLa; [3]): 16.8 ± 4.12 µM
- IC50 (HepG2; [4]): 31.8 ± 2.86 µM
- IC50 at 48 h [1, 5]: 118 ± 12.9 µM

Compound: COC(=O)C1c2[nH]c3ccccc3c2CCN1C(=O)c1ccc(C(F)(F)F)cc1 (stereo not drawn) [Compound 6f, Methyl-2-(4-(trifluoromethyl)benzoyl)-2,3,4,9-tetrahydro-1H-pyrido [3,4-b] indole-1-carboxylate]
- IC50 (A549; [2]): 38.7 ± 7.25 µM
- IC50 (CDK4/CycD3): 39.6 µM
- IC50 (HeLa; [3]): 29.9 ± 4.73 µM
- melting point: 193.3 to 194.36 °C
- IC50 (HepG2; [4]): 35.8 ± 3.23 µM
- IC50 at 48 h [1, 5]: 125 ± 26.1 µM

Compound: COC(=O)C1c2[nH]c3ccccc3c2CCN1C(=O)c1ccc(F)cc1 (stereo not drawn) [Compound 6a, Methyl-2-(4-fluorobenzoyl)-2,3,4,9-tetrahydro-1H-pyrido [3,4-b] indole-1-carboxylate]
- IC50 (A549; [2]): 38.3 ± 2.53 µM
- IC50 (CDK4/CycD3): 29.6 µM
- IC50 (HeLa; [3]): 28.4 ± 1.12 µM
- melting point: 182.8 to 183.7 °C
- IC50 (HepG2; [4]): 31.6 ± 2.53 µM
- IC50 at 48 h [1, 5]: 253 ± 33.2 µM

Now from value to compound, other results behind:

- IC50 (CDK4/CycD3): 30.7 µM
- melting point: 206.9 to 209.8 °C
Compound: CCOC(=O)C1c2[nH]c3ccccc3c2CCN1C(=O)c1ccc(OC)cc1 (stereo not drawn) [Compound 7b, Ethyl-2-(4-methoxybenzoyl)-2,3,4,9-tetrahydro-1H-pyrido [3,4-b] indole-1-carboxylate]
- IC50 (A549; [2]): 15.5 ± 13.4 µM
- IC50 (HeLa; [3]): 15.4 ± 3.1 µM
- IC50 (HepG2; [4]): 41.5 ± 2.42 µM
- IC50 at 48 h [1, 5]: 429 ± 38.9 µM

- IC50 (CDK4/CycD3): 16.4 µM
- melting point: 209.6 to 211.5 °C
Compound: CCOC(=O)C1c2[nH]c3ccccc3c2CCN1C(=O)c1ccc2ccccc2c1 (stereo not drawn) [Compound 7h, Ethyl-2-(2-naphthoyl)-2,3,4,9-tetrahydro-1H-pyrido [3,4-b] indole-1-carboxylate]
- IC50 (A549; [2]): 25.5 ± 3.92 µM
- IC50 (HeLa; [3]): 16.5 ± 6.64 µM
- IC50 (HepG2; [4]): 17.5 ± 13.8 µM
- IC50 at 48 h [1, 5]: 183 ± 13.2 µM

- IC50 (CDK4/CycD3): 4.89 µM
- melting point: 201.4 to 201.8 °C
Compound: CCOC(=O)C1c2[nH]c3ccccc3c2CCN1C(=O)c1ccc(-c2ccccc2)cc1 (stereo not drawn) [Compound 7c, Ethyl 2-([1, 1’-biphenyl]-4-carbonyl)-2,3,4,9-tetrahydro-1H-pyrido [3,4-b] indole-1 carboxylate]
- IC50 (A549; [2]): 10.5 ± 1.5 µM
- IC50 (HeLa; [3]): 4.71 ± 0.7 µM
- IC50 (HepG2; [4]): 10.8 ± 1.49 µM
- IC50 at 48 h [1, 5]: 281 ± 7.81 µM

- IC50 (CDK4/CycD3): 30.4 µM
- melting point: 232.3 to 233.5 °C
Compound: CCOC(=O)C1c2[nH]c3ccccc3c2CCN1C(=O)c1ccc(Cl)cc1 (stereo not drawn) [Compound 7g, Ethyl-2-(4-chlorobenzoyl)-2,3,4,9-tetrahydro-1H-pyrido[3,4-b] indole-1-carboxylate]
- IC50 (A549; [2]): 27.3 ± 2.4 µM
- IC50 (HeLa; [3]): 24.9 ± 3.44 µM
- IC50 (HepG2; [4]): 41.4 ± 1.69 µM
- IC50 at 48 h [1, 5]: 200 ± 9.97 µM

- IC50 (CDK4/CycD3): 29.7 µM
- melting point: 196.5 to 198.6 °C
Compound: CCOC(=O)C1c2[nH]c3ccccc3c2CCN1C(=O)c1ccccc1 (stereo not drawn) [Compound 7e, Ethyl-2-benzoyl-2,3,4,9-tetrahydro-1H-pyrido [3,4-b] indole-1-carboxylate]
- IC50 (A549; [2]): 27.3 ± 6.5 µM
- IC50 (HeLa; [3]): 19.9 ± 2.45 µM
- IC50 (HepG2; [4]): 21.4 ± 1.69 µM
- IC50 at 48 h [1, 5]: 99.8 ± 9.97 µM

- IC50 (CDK4/CycD3): 31.6 µM
- melting point: 199.5 to 201.7 °C
Compound: CCOC(=O)C1c2[nH]c3ccccc3c2CCN1C(=O)c1ccc(F)cc1 (stereo not drawn) [Compound 7a, Ethyl-2-(4-fluorobenzoyl)-2,3,4,9-tetrahydro-1H-pyrido [3,4-b] indole-1-carboxylate]
- IC50 (A549; [2]): 39.5 ± 4.98 µM
- IC50 (HeLa; [3]): 29.6 ± 7.07 µM
- IC50 (HepG2; [4]): 47.5 ± 4.11 µM
- IC50 at 48 h [1, 5]: 255 ± 86.3 µM

- IC50 (CDK4/CycD3): 43.9 µM
Compound: CCOC(=O)C1c2[nH]c3ccccc3c2CCN1C(=O)c1ccc(C(F)(F)F)cc1 (stereo not drawn) [Compound 7f, Ethyl-2-(4-(trifluoromethyl)benzoyl)-2,3,4,9-tetrahydro-1H-pyrido [3,4-b] indole-1-carboxylate]
- IC50 (A549; [2]): 42.1 ± 7.6 µM
- IC50 (HeLa; [3]): 47 ± 4.8 µM
- IC50 (HepG2; [4]): 16.2 ± 3.72 µM
- IC50 at 48 h [1, 5]: 183 ± 17.9 µM

- IC50 (CDK4/CycD3): 9.38 ± 1.79 µM
- melting point: 202.5 to 204.6 °C
Compound: CCOC(=O)C1c2[nH]c3ccccc3c2CCN1C(=O)c1ccc2c(c1)OCO2 (stereo not drawn) [Compound 7i, Ethyl-2-(benzo [d] [1,3]dioxole-5-carbonyl)-2,3,4,9-tetrahydro-1H-pyrido [3,4-b] indole-1-carboxylate]
- IC50 (A549; [2]): 20 ± 5.57 µM
- IC50 (HeLa; [3]): 6.18 ± 2.78 µM
- IC50 (HepG2; [4]): 23.2 ± 9.17 µM
- IC50 at 48 h [1, 5]: 256 ± 56 µM

- IC50 (CDK4/CycD3): 35.3 µM
- melting point: 175.6 to 176.3 °C
Compound: CCOC(=O)C1c2[nH]c3ccccc3c2CCN1C(=O)c1ccc(I)cc1 (stereo not drawn) [Compound 7d, Ethyl-2-(4-iodobenzoyl)-2,3,4,9-tetrahydro-1H-pyrido[3,4-b] indole-1-carboxylate]
- IC50 (A549; [2]): 20.4 ± 2.68 µM
- IC50 (HeLa; [3]): 27.6 ± 2.38 µM
- IC50 (HepG2; [4]): 28.2 ± 0.95 µM
- IC50 at 48 h [1, 5]: 183 ± 17.9 µM
